Experiment: molar heat capacity at constant volume
Details: Liquid, Vacuum adiabatic calorimetry

CCC [propane]
Details | molar heat capacity at constant volume [J/K/mol]
101.14 K, 5078 kPa | 59.59
102.31 K, 9415 kPa | 59.63
104.09 K, 13618 kPa | 59.63
105.25 K, 15961 kPa | 59.93
107.01 K, 19580 kPa | 59.8
108.15 K, 22430 kPa | 60.17
109.89 K, 26296 kPa | 60.2
111.02 K, 28556 kPa | 60.44
124.99 K, 4945 kPa | 59.16
126.59 K, 8062 kPa | 59.47
127.81 K, 10414 kPa | 59.44
129.39 K, 13480 kPa | 59.66
130.6 K, 15739 kPa | 59.6
132.17 K, 18723 kPa | 60.02
133.36 K, 20943 kPa | 60
134.92 K, 23869 kPa | 60.12
136.1 K, 26024 kPa | 60.14
137.64 K, 28865 kPa | 60.52
138.81 K, 30978 kPa | 60.43
149.78 K, 4666 kPa | 59.78
150.88 K, 6488 kPa | 59.62
152.48 K, 9113 kPa | 59.99
153.59 K, 10968 kPa | 60.1
155.17 K, 13482 kPa | 60.14
156.27 K, 15303 kPa | 60.05
157.84 K, 17768 kPa | 60.44
158.93 K, 19535 kPa | 60.5
160.49 K, 21973 kPa | 60.63
161.58 K, 23733 kPa | 60.93
163.12 K, 26095 kPa | 60.76
164.21 K, 27828 kPa | 61.2
165.73 K, 30131 kPa | 61.05
166.81 K, 31798 kPa | 61.54
174.72 K, 4244 kPa | 60.48
175.51 K, 5348 kPa | 60.54
177.36 K, 7916 kPa | 60.58
178.15 K, 9061 kPa | 60.86
179.97 K, 11523 kPa | 61.04
180.77 K, 12700 kPa | 61.22
182.57 K, 15077 kPa | 61.29
183.38 K, 16221 kPa | 61.34
185.16 K, 18570 kPa | 61.57
185.97 K, 19691 kPa | 61.79
187.72 K, 22005 kPa | 62.06
188.54 K, 23141 kPa | 62.12
190.27 K, 25385 kPa | 62.49
191.1 K, 26538 kPa | 62.39
192.81 K, 28708 kPa | 62.66
193.64 K, 29843 kPa | 62.88
195.33 K, 31980 kPa | 62.87
196.16 K, 33063 kPa | 63.39
199.29 K, 3434 kPa | 62.08
200.29 K, 4569 kPa | 62.02
201.88 K, 6487 kPa | 62.05
202.88 K, 7627 kPa | 62.29
204.46 K, 9498 kPa | 62.44
205.45 K, 10675 kPa | 62.72
207.03 K, 12468 kPa | 63.03
208.02 K, 13633 kPa | 63.07
209.59 K, 15407 kPa | 63.29
210.57 K, 16525 kPa | 63.38
212.13 K, 18295 kPa | 63.46
213.11 K, 19392 kPa | 63.48
214.66 K, 21152 kPa | 63.9
215.63 K, 22244 kPa | 63.92
217.18 K, 23972 kPa | 64.21
218.15 K, 25069 kPa | 64.71
219.69 K, 26749 kPa | 64.74
220.66 K, 27850 kPa | 64.89
222.18 K, 29491 kPa | 65.36
223.14 K, 30548 kPa | 65.25
224.67 K, 32203 kPa | 65.68
224.72 K, 3002 kPa | 64.29
225.63 K, 33221 kPa | 66
225.69 K, 3945 kPa | 64.4
227.28 K, 5514 kPa | 64.59
228.26 K, 6458 kPa | 64.54
229.84 K, 8010 kPa | 64.8
230.82 K, 8990 kPa | 65.2
232.38 K, 10480 kPa | 64.79
233.38 K, 11478 kPa | 65.49
234.92 K, 12923 kPa | 65.31
235.92 K, 13904 kPa | 65.71
237.46 K, 15350 kPa | 65.71
238.46 K, 16299 kPa | 66.07
239.99 K, 17746 kPa | 65.96
240.99 K, 18681 kPa | 66.68
242.51 K, 20123 kPa | 66.43
243.5 K, 21054 kPa | 66.99
245.03 K, 22471 kPa | 67.42
246.01 K, 23413 kPa | 67.65
247.54 K, 24804 kPa | 67.75
248.53 K, 25750 kPa | 67.69
249.66 K, 2670 kPa | 66.76
250.04 K, 27105 kPa | 67.7
250.68 K, 3498 kPa | 66.65
251.02 K, 28035 kPa | 68.22
252.25 K, 4769 kPa | 67.25
252.53 K, 29385 kPa | 68.06
253.26 K, 5557 kPa | 67.47
253.52 K, 30287 kPa | 68.63
254.85 K, 6861 kPa | 67.69
255.02 K, 31645 kPa | 68.71
255.85 K, 7667 kPa | 67.82
256 K, 32529 kPa | 69.58
257.44 K, 8938 kPa | 67.87
258.44 K, 9764 kPa | 67.88
260.02 K, 10999 kPa | 68.4
261.02 K, 11824 kPa | 68.53
262.61 K, 13051 kPa | 68.83
263.6 K, 13861 kPa | 69.03
265.2 K, 15091 kPa | 69.38
266.18 K, 15878 kPa | 69.32
267.79 K, 17120 kPa | 69.94
268.76 K, 17881 kPa | 69.68
270.37 K, 19134 kPa | 70.51
271.33 K, 19881 kPa | 70.43
272.95 K, 21136 kPa | 70.81
273.9 K, 21877 kPa | 70.9
275.54 K, 23127 kPa | 70.92
276.18 K, 3327 kPa | 70.24
276.48 K, 23865 kPa | 71.62
276.56 K, 3559 kPa | 70.86
278.12 K, 25101 kPa | 71.49
278.85 K, 5025 kPa | 70.73
279.04 K, 25835 kPa | 72.09
279.23 K, 5297 kPa | 71.29
280.7 K, 27065 kPa | 72.08
281.51 K, 6761 kPa | 71.44
281.61 K, 27786 kPa | 72.29
281.9 K, 7032 kPa | 70.95
283.29 K, 29020 kPa | 72.18
284.18 K, 8508 kPa | 71.57
284.19 K, 29713 kPa | 72.65
284.58 K, 8760 kPa | 71.75
285.87 K, 30962 kPa | 72.47
286.77 K, 31632 kPa | 72.64
286.85 K, 10247 kPa | 71.76
287.26 K, 10490 kPa | 72.25
288.45 K, 32894 kPa | 72.96
289.34 K, 33552 kPa | 73.33
289.52 K, 11964 kPa | 71.92
289.95 K, 12212 kPa | 72.29
292.2 K, 13671 kPa | 72.85
292.64 K, 13928 kPa | 73.17
294.88 K, 15364 kPa | 73.57
295.34 K, 15644 kPa | 73.82
297.56 K, 17055 kPa | 74.47
298.05 K, 17358 kPa | 74.2
300.26 K, 18750 kPa | 74.37
300.73 K, 2939 kPa | 74.37
300.76 K, 19068 kPa | 74.45
301.58 K, 3377 kPa | 74.41
301.67 K, 3419 kPa | 74.62
302.95 K, 20442 kPa | 74.16
303.48 K, 20773 kPa | 74.78
303.54 K, 4354 kPa | 74.77
304.37 K, 4801 kPa | 74.97
304.51 K, 4850 kPa | 74.76
305.65 K, 22131 kPa | 75.52
306.2 K, 22473 kPa | 75.56
306.36 K, 5801 kPa | 74.54
307.19 K, 6235 kPa | 74.97
307.35 K, 6310 kPa | 75.3
308.37 K, 23829 kPa | 76.01
308.94 K, 24172 kPa | 76.12
309.19 K, 7252 kPa | 75.53
310.01 K, 7669 kPa | 75.56
310.22 K, 7778 kPa | 75.78
311.08 K, 25517 kPa | 76.58
311.68 K, 25869 kPa | 76.11
312.04 K, 8706 kPa | 75.83
312.85 K, 9104 kPa | 76.02
313.1 K, 9241 kPa | 76.23
313.82 K, 27203 kPa | 77.38
314.43 K, 27556 kPa | 77.06
314.91 K, 10151 kPa | 75.71
315.69 K, 10543 kPa | 77.05
316 K, 10697 kPa | 76.49
316.58 K, 28887 kPa | 76.95
317.18 K, 29242 kPa | 77.79
317.79 K, 11598 kPa | 77.05
318.56 K, 11984 kPa | 77.31
318.91 K, 12158 kPa | 77.07
319.33 K, 30553 kPa | 77.02
319.67 K, 2142 kPa | 76.76
319.95 K, 30930 kPa | 77.48
320.71 K, 13058 kPa | 77.4
321.3 K, 2771 kPa | 77.58
321.43 K, 13428 kPa | 77.25
321.83 K, 13623 kPa | 76.95
322.1 K, 32227 kPa | 78.59
322.71 K, 3326 kPa | 77.29
322.73 K, 32614 kPa | 78
323.62 K, 14518 kPa | 78.11
324.31 K, 14874 kPa | 77.39
324.35 K, 3977 kPa | 78.06
324.77 K, 15094 kPa | 77.5
324.91 K, 33925 kPa | 78.84
325.78 K, 4543 kPa | 78.25
326.57 K, 15995 kPa | 78.02
327.22 K, 16325 kPa | 78.34
327.42 K, 5191 kPa | 78.96
327.73 K, 16576 kPa | 78.56
328.88 K, 5770 kPa | 78.35
329.52 K, 17472 kPa | 78.67
330.15 K, 17784 kPa | 78.59
330.51 K, 6416 kPa | 78.78
330.7 K, 18059 kPa | 79.38
331.99 K, 6999 kPa | 78.63
332.5 K, 18957 kPa | 79.25
333.09 K, 19244 kPa | 78.85
333.62 K, 7647 kPa | 78.71
333.68 K, 19542 kPa | 80.2
335.12 K, 8240 kPa | 79.2
335.5 K, 20439 kPa | 79.93
336.05 K, 20709 kPa | 79.2
336.7 K, 21027 kPa | 80.28
336.76 K, 8887 kPa | 79.06
338.28 K, 9489 kPa | 80.76
338.52 K, 21926 kPa | 80.26
339.05 K, 22184 kPa | 80.79
339.73 K, 22511 kPa | 80.76
339.92 K, 10135 kPa | 80.44
341.46 K, 10747 kPa | 81.71
341.56 K, 23408 kPa | 80.54
342.07 K, 23667 kPa | 81.31
342.79 K, 24013 kPa | 81.23
343.1 K, 11393 kPa | 80.84
344.62 K, 24907 kPa | 81.87
344.67 K, 12011 kPa | 81.35
